Experimental data as given in patent publication US6235731A, “Fused imidazopyridine derivatives as antihyperlipidemic agents” (Takeda Chemical Industries, Ltd., priority 1996, dated 2001).
Counter-ions that a name gives are not always drawn. Like-named read-outs stand apart in the source and are kept apart here.

Legend:
Golden Syrian hamsters = assay: Cholesterol lowering activity in Golden hamster; assay type: in vivo, Golden Syrian hamster; settings: Mesocricetus auratus, po, 96 h, 20 mg/kg/d orally, once daily for 4 days
Experimental: Cholesterol lowering activity in Golden hamster Male Golden Syrian hamsters (110-130 g) were maintained freely on water and a laboratory diet (CE-2, Clea Japan Inc., Tokyo). […] Blood was taken from orbital sinus and plasma total cholesterol and triglyceride were measured an automatic analyzer (Hitachi 7070, Hitachi Ltd., Tokyo) using commercial kits (Wako Pure Chemical Industries, Osaka), and plasma HDL-cholesterol using a commercial kit (Kyowa Medex Co., Ltd., Tokyo) before and after the treatment of compound. Non-HDL cholesterol was calculated by subtracting HDL-cholesterol from total cholesterol. |Non-HDL-C (non-HDL-cholesterol): [total cholesterol]-[HDL-cholesterol] |TG: triglyceride

HepG2 cells = assay: Increase in LDL-binding to HepG2 cells; assay type: cell-based; settings: 10 μM test compound, 20 hours, specific human [125I]LDL binding, normalized by protein, read-out: LDL binding (% of control)
Experimental: Increase in LDL-binding to HepG2 cells LDL-binding was measured according to the method of J. L. Goldstein. HepG2 cells were purchased from ATCC (American type culture collection) and seeded in 6-well plate with collagen coating (Sumitomo Bakelite), and cultured in Eagle's minimum essential medium (MEM) containing 10%-fetal bovine serum at 37° C. for 4 days. […] After washing with phosphate buffered saline cells were incubated with MEM containing 25 mM-HEPES and 1%-bovine serum albumin (fatty acid free) in the presence of human [^125 I]LDL (4 μg/ml) at 6° C. for 2 hours. After washing cells bound [^125 I]LDL was dissociated with dextran sulfate and the radioactivity was measured (total binding). [^125 I]LDL binding to cells was also measured in the presence of LDL (300 μg/ml) as a non-specific binding (NSB). Specific [^125 I]LDL-binding was calculated by subtracting NSB from total binding and was normalized by protein content measured by the method of lowry. Data was expressed as percentage of the control.

[1] = plasma triglyceride, read-out: TG (% of control)
[2] = plasma, [total cholesterol]-[HDL-cholesterol], read-out: Non-HDL-C (% of control)

## O=C(NCC1CCN(CCCc2cccc(F)c2)CC1)C1=Cc2cnc3cccc(n23)S1 [Example 74, N-[1-(3-(3-fluorophenyl)propan-1-yl)piperidin-4-ylmethyl]-5-thia-1,8b-diazaacenaphthylene-4-carboxamide Dihydrochloride]
Golden Syrian hamsters; [1]
  response vs control in vivo at 20 mg/kg: 67.9%
Golden Syrian hamsters; [2]
  response vs control in vivo at 20 mg/kg: 73.5%

## O=C(NCC1CCN(CCc2ccccc2F)CC1)C1=Cc2cnc3cccc(n23)S1 [Example 68, N-[1-(2-fluorophenethyl)piperidin-4-ylmethyl]-5-thia-1,8b-diazaacenaphthylene-4-carboxamide Dihydrochloride]
Golden Syrian hamsters; [1]
  response vs control in vivo at 20 mg/kg: 74.3%
Golden Syrian hamsters; [2]
  response vs control in vivo at 20 mg/kg: 58.5%

## O=C(NCC1CCN(CCCOc2ccc(F)cc2F)CC1)C1=Cc2cnc3cccc(n23)S1 [Example 117, N-[1-(3-(2,4-difluorophenoxy)propan-1-yl)piperidin-4-ylmethyl]-5-thia-1,8b-diazaacenaphthylene-4-carboxamide Dihydrochloride]
HepG2 cells
  activity at 10 µM: 137%

## O=C(NCC1CCN(C[C@@H]2COc3ccccc3O2)CC1)C1=Cc2cnc3cccc(n23)S1 [Example 1, (R)-N-[1-(1,4-benzodioxan-2-ylmethyl)piperidin-4-ylmethyl]-5-thia-1,8b-diazaacenaphthylene-4-carboxamide dihydrochloride]
HepG2 cells
  activity at 10 µM: 203%
Golden Syrian hamsters; [1]
  response vs control in vivo at 20 mg/kg: 78.4%
Golden Syrian hamsters; [2]
  response vs control in vivo at 20 mg/kg: 68.6%

## O=C(NC1CCN(CCCc2ccccc2Cl)CC1)C1=Cc2cnc3cccc(n23)S1 [Example 39, N-[1-[3-(2-chlorophenyl)propan-1-yl]piperidin-4-yl]-5-thia-1,8b-diazaacenaphthylene-4-carboxamide dihydrochloride]
Golden Syrian hamsters; [1]
  response vs control in vivo at 20 mg/kg: 62.6%
Golden Syrian hamsters; [2]
  response vs control in vivo at 20 mg/kg: 62.7%

## O=C(NC1CCN(CCCc2ccccc2)CC1)C1=Cc2cnc3cccc(n23)S1 [Example 36, N-[1-(3-phenylpropan-1-yl)piperidin-4-yl]-5-thia-1,8b-diazaacenaphthylene-4-carboxamide Dihydrochloride]
HepG2 cells
  activity at 10 µM: 218%
Golden Syrian hamsters; [1]
  response vs control in vivo at 20 mg/kg: 74.7%
Golden Syrian hamsters; [2]
  response vs control in vivo at 20 mg/kg: 61.9%

## O=C(NCCCN1CCN(Cc2ccccc2)CC1)C1=Cc2cnc3cccc(n23)S1 [Example 33, N-[3-(4-benzyl-1-piperazinyl)propan-1-yl]-5-thia-1,8b-diazaacenaphthylene-4-carboxamide Trihydrochloride]
Golden Syrian hamsters; [1]
  response vs control in vivo at 20 mg/kg: 85.6%
Golden Syrian hamsters; [2]
  response vs control in vivo at 20 mg/kg: 77.1%

## O=C(NCCCCN1CCN(Cc2ccccc2)CC1)C1=Cc2cnc3cccc(n23)S1 [Example 32, N-[4-(4-benzyl-1-piperazinyl)butan-1-yl]-5-thia-1,8b-diazaacenaphthylene-4-carboxamide Trihydrochloride]
Golden Syrian hamsters; [1]
  response vs control in vivo at 20 mg/kg: 76.5%
Golden Syrian hamsters; [2]
  response vs control in vivo at 20 mg/kg: 76.6%

## O=C(NCC1CCN(CCCOc2ccc(F)cc2)CC1)C1=Cc2cnc3cccc(n23)S1 [Example 113, N-[1-(3-(4-fluorophenoxy)propan-1-yl)piperidin-4-ylmethyl]-5-thia-1,8b-diazaacenaphthylene-4-carboxamide Dihydrochloride]
HepG2 cells
  activity at 10 µM: 140%

## O=C(NCCCC1CCN(CCCc2ccccc2)CC1)C1=Cc2cnc3cccc(n23)S1 [Example 46, N-[3-(1-(3-phenylpropan-1-yl)piperidin-4-yl)propan-1-yl]-5-thia-1,8b-diazaacenaphthylene-4-carboxamide Dihydrochloride]
HepG2 cells
  activity at 10 µM: 166%
Golden Syrian hamsters; [1]
  response vs control in vivo at 20 mg/kg: 72.4%
Golden Syrian hamsters; [2]
  response vs control in vivo at 20 mg/kg: 69.6%

## O=C(NCC1CCN(CCc2ccc(F)cc2)CC1)C1=Cc2cnc3cccc(n23)S1 [Example 70, N-[1-(4-fluorophenethyl)piperidin-4-ylmethyl]-5-thia-1,8b-diazaacenaphthylene-4-carboxamide Dihydrochloride]
Golden Syrian hamsters; [1]
  response vs control in vivo at 20 mg/kg: 71.2%
Golden Syrian hamsters; [2]
  response vs control in vivo at 20 mg/kg: 47.9%

## O=C(NCCCCN1CCc2ccccc2C1)C1=Cc2cnc3cccc(n23)S1 [Example 34, N-[4-(1,2,3,4-tetrahydroisoquinolin-2-yl)butan-1-yl]-5-thia-1,8b-diazaacenaphthylene-4-carboxamide Dihydrochloride]
Golden Syrian hamsters; [1]
  response vs control in vivo at 20 mg/kg: 74.7%
Golden Syrian hamsters; [2]
  response vs control in vivo at 20 mg/kg: 72.2%

## O=C(C=CC1=Cc2cnc3cccc(n23)S1)NC1CCN(CCCc2ccccc2)CC1 [Example 10, N-[1-(3-phenylpropan-1-yl)piperidin-4-yl]-3-(5-thia-1,8b-diazaacenaphthylen-4-yl)acrylamide dihydrochloride]
HepG2 cells
  activity at 10 µM: 169%
Golden Syrian hamsters; [1]
  response vs control in vivo at 20 mg/kg: 70.8%
Golden Syrian hamsters; [2]
  response vs control in vivo at 20 mg/kg: 61%

## O=C(NCCN1CCN(CCCc2ccccc2)CC1)C1=Cc2cnc3cccc(n23)S1 [Example 58, N-[2-(4-(3-phenylpropan-1-yl)piperazin-1-yl)ethan-1-yl]-5-thia-1,8b-diazaacenaphthylene-4-carboxamide Trihydrochloride]
Golden Syrian hamsters; [1]
  response vs control in vivo at 20 mg/kg: 71.2%
Golden Syrian hamsters; [2]
  response vs control in vivo at 20 mg/kg: 74%

## O=C(NCC1CCN(CCCc2ccccc2Cl)CC1)C1=Cc2cnc3cccc(n23)S1 [Example 77, N-[1-(3-(2-chlorophenyl)propan-1-yl)piperidin-4-ylmethyl]-5-thia-1,8b-diazaacenaphthylene-4-carboxamide Dihydrochloride]
HepG2 cells
  activity at 10 µM: 168%

## O=C(NCCCCN1CCC(Cc2ccccc2)CC1)C1=Cc2cnc3cccc(n23)S1 [Example 28, N-[4-(4-benzylpiperidin-1-yl)butan-1-yl]-5-thia-1,8b-diazaacenaphthylene-4-carboxamide Dihydrochloride]
HepG2 cells
  activity at 10 µM: 194%
Golden Syrian hamsters; [1]
  response vs control in vivo at 20 mg/kg: 61.3%
Golden Syrian hamsters; [2]
  response vs control in vivo at 20 mg/kg: 62.9%

## O=C(C1=Cc2cnc3cccc(n23)S1)N(Cc1ccccc1)CC1CCN(CCCc2ccccc2)CC1 [Example 52, N-benzyl-N-[1-(3-phenylpropan-1-yl)piperidin-4-ylmethyl]-5-thia-1,8b-diazaacenaphthylene Dihydrochloride]
HepG2 cells
  activity at 10 µM: 183%

## O=C(NCCCN1CCC(c2ccccc2)CC1)C1=Cc2cnc3cccc(n23)S1 [Example 27, N-[3-(4-phenylpiperidin-1-yl)propan-1-yl]-5-thia-1,8b-diazaacenaphthylene-4-carboxamide Dihydrochloride]
HepG2 cells
  activity at 10 µM: 168%
Golden Syrian hamsters; [1]
  response vs control in vivo at 20 mg/kg: 83.9%
Golden Syrian hamsters; [2]
  response vs control in vivo at 20 mg/kg: 73.9%

## O=C(NCCCCN1CCC(c2ccccc2)CC1)C1=Cc2cnc3cccc(n23)S1 [Example 26, N-[4-(4-phenylpiperidin-1-yl)butan-1-yl]-5-thia-1,8b-diazaacenaphthylene-4-carboxamide Dihydrochloride]
HepG2 cells
  activity at 10 µM: 189%
Golden Syrian hamsters; [1]
  response vs control in vivo at 20 mg/kg: 82%
Golden Syrian hamsters; [2]
  response vs control in vivo at 20 mg/kg: 66.4%

## O=C(NCC1CCN(C[C@H]2COc3ccccc3O2)CC1)C1=Cc2cnc3cccc(n23)S1 [Example 2, (S)-N-[1-(1,4-benzodioxan-2-ylmethyl)piperidin-4-ylmethyl]-5-thia-1,8b-diazaacenaphthylene-4-carboxamide]
HepG2 cells
  activity at 10 µM: 172%
Golden Syrian hamsters; [1]
  response vs control in vivo at 20 mg/kg: 102%
Golden Syrian hamsters; [2]
  response vs control in vivo at 20 mg/kg: 65.1%

## O=C(NCC1CCN(CCCc2ccc(F)cc2F)CC1)C1=Cc2cnc3cccc(n23)S1 [Example 76, N-[1-(3-(2,4-difluorophenyl)propan-1-yl)piperidin-4-ylmethyl]-5-thia-1,8b-diazaacenaphthylene-4-carboxamide Dihydrochloride]
HepG2 cells
  activity at 10 µM: 282%
Golden Syrian hamsters; [1]
  response vs control in vivo at 20 mg/kg: 58.1%
Golden Syrian hamsters; [2]
  response vs control in vivo at 20 mg/kg: 74%

## COc1ccccc1CCCN1CCC(CNC(=O)C2=Cc3cnc4cccc(n34)S2)CC1 [Example 80, N-[1-(3-(2-methoxyphenyl)propan-1-yl)piperidin-4-ylmethyl]-5-thia-1,8b-diazaacenaphthylene-4-carboxamide Dihydrochloride]
HepG2 cells
  activity at 10 µM: 248%

## O=C(NCC1CCN(CC2COc3ccccc3O2)CC1)C1=Cc2cnc3cccc(n23)S1 (centres unmarked) [Example 3, N-[1-(1,4-benzodioxan-2-ylmethyl)piperidin-4-ylmethyl]-5-thia-1,8b-diazaacenaphthylene-4-carboxamide dihydrochloride]
HepG2 cells
  activity at 10 µM: 194%
Golden Syrian hamsters; [1]
  response vs control in vivo at 20 mg/kg: 91.3%
Golden Syrian hamsters; [2]
  response vs control in vivo at 20 mg/kg: 69.5%

## O=C(NCC1CCN(CCCc2ccccc2F)CC1)C1=Cc2cnc3cccc(n23)S1 [Example 67, N-[1-(3-(2-fluorophenyl)propan-1-yl)piperidin-4-ylmethyl]-5-thia-1,8b-diazaacenaphthylene-4-carboxamide Dihydrochloride]
HepG2 cells
  activity at 10 µM: 162%
Golden Syrian hamsters; [1]
  response vs control in vivo at 20 mg/kg: 67.9%
Golden Syrian hamsters; [2]
  response vs control in vivo at 20 mg/kg: 62%

## O=C(NCCCN1CCC(Cc2ccccc2)CC1)C1=Cc2cnc3cccc(n23)S1 [Example 29, N-[3-(4-benzylpiperidin-1-yl)propan-1-yl]-5-thia-1,8b-diazaacenaphthylene-4-carboxamide Dihydrochloride]
Golden Syrian hamsters; [1]
  response vs control in vivo at 20 mg/kg: 73.9%
Golden Syrian hamsters; [2]
  response vs control in vivo at 20 mg/kg: 68.1%
